Data as given in paper PMC9970282 (Nature chemical biology, 2022).

How the values were obtained:
Assay in all cases: Competitive kinase engagement in mouse spleen with probe 3 as occupancy probe
Type in all cases: in vivo, mice
[1] = molecular target: CDK2 (Mus musculus, UniProt P97377); details: 50 mg/kg oral
[2] = molecular target: CDK17 (Mus musculus, UniProt Q8K0D0); details: 50 mg/kg oral, probe 3 10 mg/kg s.c., 1 h, p < 0.05
[3] = molecular target: CDK5 (Mus musculus, UniProt P49615); details: 50 mg/kg oral, probe 3 10 mg/kg s.c., 1 h, p < 0.05
Sequence of CDK5 (P49615 whole entry): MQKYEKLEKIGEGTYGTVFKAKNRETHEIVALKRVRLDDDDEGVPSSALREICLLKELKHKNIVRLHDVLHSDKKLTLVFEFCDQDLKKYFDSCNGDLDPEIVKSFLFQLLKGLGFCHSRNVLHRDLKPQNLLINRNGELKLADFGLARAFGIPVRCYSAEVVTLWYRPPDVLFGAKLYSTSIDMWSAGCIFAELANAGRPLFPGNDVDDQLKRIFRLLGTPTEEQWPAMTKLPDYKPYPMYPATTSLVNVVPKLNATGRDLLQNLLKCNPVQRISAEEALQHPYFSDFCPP

Sequence of CDK17 (Q8K0D0 whole entry): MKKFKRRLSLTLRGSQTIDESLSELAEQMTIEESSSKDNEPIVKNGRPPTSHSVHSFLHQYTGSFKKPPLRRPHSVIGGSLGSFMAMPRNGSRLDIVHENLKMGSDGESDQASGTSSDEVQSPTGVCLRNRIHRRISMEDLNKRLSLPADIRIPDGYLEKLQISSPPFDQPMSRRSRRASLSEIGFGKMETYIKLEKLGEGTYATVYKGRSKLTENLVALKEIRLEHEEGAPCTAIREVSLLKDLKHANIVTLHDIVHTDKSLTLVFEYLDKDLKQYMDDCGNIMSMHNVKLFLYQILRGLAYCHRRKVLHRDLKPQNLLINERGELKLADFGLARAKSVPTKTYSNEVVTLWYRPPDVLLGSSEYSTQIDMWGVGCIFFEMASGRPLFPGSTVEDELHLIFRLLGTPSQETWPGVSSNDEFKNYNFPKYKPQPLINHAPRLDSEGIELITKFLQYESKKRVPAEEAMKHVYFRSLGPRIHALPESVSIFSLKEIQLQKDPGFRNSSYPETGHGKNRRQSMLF

estimated occupancy of CDK2 in spleen tissue ([1]; mice, based on competition with probe 3): > 80%
log2 FC of enrichment by probe 3, PF-06873600 vs. vehicle ([1]; mouse spleen, probe 3 10 mg/kg s.c., 1 h, p < 0.05): < –2
log2 FC of enrichment by probe 3, PF-06873600 vs. vehicle [2]: < –2
log2 FC of enrichment by probe 3, PF-06873600 vs. vehicle [3]: ~ –1
SMILES: C[C@@]1(O)CCC[C@H]1n1c(=O)c(C(F)F)cc2cnc(NC3CCN(S(C)(=O)=O)CC3)nc21 [PF-06873600]
